Measured values as given in patent publication US5254801A, “Heterologous dominant conditional lethal gene which is a phosphonate monoester hydrolase and use thereof in plants” (Monsanto Company, priority 1990, dated 1993).

Experiments:
Type in all cases: cell-based
LBAA = experiment: In vivo (3-14C-) glyceryl glyphosate hydrolysis assay in whole cells; details: strain LBAA; three hour incubation, 30° C.
Experimental: (§1) Bacteria which grew in this medium using glyceryl glyphosate as a sole phosphate source had the ability to cleave both the ester and the phosphonate bond to release the free phosphate. For these bacteria to be useful in the present invention, the first step in the mineralization of glyceryl glyphosate needed is the hydrolysis of the phosphonate ester. Each of the three bacteria which utilized glyceryl glyphosate as a phosphate source were then assayed for a phosphonate monoester hydrolase activity using an in vivo (3-^14 C-) glyceryl glyphosate assay. A 150 ml culture of each bacteria was grown in DF minimal medium with 0.2 mM HK2 PO4 as a phosphate source in a 500 ml flask, 30° C., with shaking. The bacteria were pelleted by centrifugation at 5,000×g for 10 min and resuspended at 10 mg fresh weight/ml. An assay mix included 50 μl cells plus 10 μl (3-^14 C-) glyceryl glyphosate (10,000 cpm/μl) and kept at 30° C. with shaking. After a three hour incubation period, the cells were pelleted in a microfuge and the supernatant injected onto an HPLC anion exchange column and glyphosate analyzed as described above. The pellet was washed twice with 1 ml 10 mM HEPES, pH 7.0, and resuspended in 25 μl buffer. The cells were lysed with 25 μl quench and the debris pelleted in a microfuge. The pellet extract was then analyzed for glyphosate product as described above. […]

T10 = experiment: as above; details: strain T10; three hour incubation, 30° C.
Experimental: as §1

[1] = system: E. coli MM294, JM101, JM101/MPU+, SR200/MPU; experiment: as above; details: E. coli strains; three hour incubation, 30° C.
[2] = system: E. coli JM101/pMON9428 (pehA:1); experiment: Conditional lethal phenotype test on MOPS minimal plates
Source text: (§2) The NcoI-BamHI pehA:1 fragment was removed from pMON9420 by restricting the DNA with both enzymes, separating the fragments on an agarose gel, and purifying the pehA fragment from the gel using the GeneClean kit. In a similar manner the BamHI-ClaI pehA:1 fragment was obtained from pMON9421 and both were ligated into an E. coli expression vector to reconstruct the pehA:1 gene behind the RecA promoter with the […] gene 10L leader. The resulting vector, pMON9428 (FIG. 3), was transformed into E. coli strain JM101 using calcium chloride transformation and transformants selected on LB agar with 100 μg/ml spectinomycin. A single colony was isolated and confirmed by restriction mapping to contain pMON9428. The JM101/pMON9428 was then streaked out on LB agar plates containing 100 μg/ml spectinomycin and […] XPP. As a control, JM101 containing the RecA expression vector without the pehA:1 gene was streaked out on the same plate. The JM101/pMON9428 formed blue colonies while the JM101 with the control vector formed white colonies. […] The JM101/pMON9428 and vector control strain were then plated on MOPS minimal medium containing 0.05 mM HK2 PO4 as the phosphate source and 100 μg/ml spectinomycin. […] To test for a conditional lethal phenotype, both strains were streaked side by side on a MOPS minimal plate with 0.05 mM KPO4, 100 μg/ml spectinomycin and 10 mM glyceryl glyphosate. […] To confirm the lethal phenotype was the result of the degradation of the glyceryl glyphosate and subsequent inhibition of aromatic amino acid biosynthesis by glyphosate, both E. coli strains were plated on MOPS minimal medium with 0.05 mM KPO4, 100 μg/ml spectinomycin, 10 mM glyceryl glyphosate and supplemented with aromatic compounds consisting of L-tyrosine, L-tryptophan, L-phenylalanine, each at 100 μg/ml, 2,3 -dihydroxybenzoicacid and para-aminobenzoic acid, each at 5 μg/ml. […] This confirmed that the conditional lethal phenotype observed in the presence of the glyceryl glyphosate was the result of its conversion to and subsequent inhibition of EPSPS by glyphosate.

[3] = system: E. coli JM101/vector control; experiment: as above
Source text: as §2

[4] = system: GUS vector control Arabidopsis calli; experiment: Callus viability on SIM medium with glyceryl glyphosate
Experimental: (§3) Arabidopsis was cultured and transformed essentially as described by Valvekens et al., 1988. Arabidopsis ecotype RLD seeds were sterilized in 5% chlorox, 0.05%. Tween20 for 20 min, washed with sterile H2 O and plated on MSO medium (MS salts with minimal organics (Sigma), 0.5 g MES/l pH 5.7, 1% sucrose and 0.8% agar). After 3 weeks the roots were cut away from the shoots and precultured 3 days on callus inducing medium (CIM; Gamborg's B5 salts (Sigma), 2% glucose, 0.5 g/l MES, pH 5.7, 0.8% agar, 0.5 mg/l 2,4-D and 0.05 mg/l kinetin). The roots were than grouped in small bundles of 5-7 roots and cut into 0.5 cm pieces. The root pieces were mixed with a fresh overnight culture of ABI Agrobacterium containing a previously described plant gene expression vector diluted 1:20 in liquid MSO (without agar). After two minutes, the roots were transferred to fresh CIM plates for a two day co-culture. After co-culture, the root pieces were washed 2X with liquid MSO medium and plated on shoot inducing medium (SIM; Gamborg's B5 salts, 2% glucose, 0.5 g/l MES, pH 5.7, 5 mg/l N^6 -(2-isopentenyl)adenine, 0.15 mg/l indole-3-acetic acid, 500 mg/l carbenicillin, 100 mg/l kanamycin and 0.8% agar. Callus which continued to grow and remain green were transformed to fresh SIM after two weeks. As rosettes began to form, they were cut away from the callus and transferred to MSO medium with 1 mg/l indole-3-butyric acid in sterile sundae cups to initiate root formation. After the plants had formed roots they were transferred to soil and grown to maturity to obtain seed.
(§4) Arabidopsis calli transformed with either pMON9429 or pMON9443 which were expressing the selectable marker NPT-II gene as evidenced by growth on 100 μg/ml kanamycin were then evaluated for pehA expression. The calli were transferred to SIM medium containing 100 μg/ml kanamycin and 1 mM glyceryl glyphosate. After 4 weeks, calli were scored for growth and ability to initiate shoots and leaves (+) or for necrosis (-).

[5] = system: pMON9429 transgenic Arabidopsis calli (pehA:1); experiment: as above
Experimental: as §3, §4

[6] = system: pMON9443 transgenic Arabidopsis calli (pehA:2); experiment: as above
Experimental: as §3, §4

[7] = 1 mM glyceryl glyphosate, 4 weeks, 12 lines scored
[8] = 1 mM glyceryl glyphosate, 4 weeks, 6 lines scored

SMILES: O=C(O)CNCP(=O)(O)OCC(O)CO (stereo not shown) [glyceryl glyphosate, glycine, N-([hydroxy (2,3 dihydroxy propoxy)phosphonyl]methyl)]
- In vivo Hydrolysis of Glyceryl Glyphosate into Glyphosate (LBAA): Yes
- In vivo Hydrolysis of Glyceryl Glyphosate into Glyphosate (T10): Yes
- In vivo Hydrolysis of Glyceryl Glyphosate into Glyphosate [1]: No
- Colony formation with aromatic compound supplement ([2]; 10 mM glyceryl glyphosate plus L-tyrosine, L-tryptophan, L-phenylalanine, 2,3-dihydroxybenzoic acid, para-aminobenzoic acid): formed colonies
- Colony formation (lethal phenotype) ([2]; 10 mM glyceryl glyphosate, MOPS minimal plate): did not form visible colonies
- Colony formation with aromatic compound supplement ([3]; 10 mM glyceryl glyphosate plus L-tyrosine, L-tryptophan, L-phenylalanine, 2,3-dihydroxybenzoic acid, para-aminobenzoic acid, vector control strain): formed colonies
- Toxicity (colony formation) ([3]; 10 mM glyceryl glyphosate, MOPS minimal plate, JM101/vector control): non-toxic
- Viability Score: Growth [4, 7]: 12 number of lines
- Viability Score: Necrosis [4, 7]: 0 number of lines
- Callus growth on protoxin (in words) ([4]; 1 mM protoxin, control calli): able to grow
- Viability Score: Growth [5, 8]: 1 number of lines
- Viability Score: Necrosis [5, 8]: 5 number of lines
- Callus phenotype on protoxin (in words) ([5]; medium containing glyceryl glyphosate, pMON9429 calli): lethality
- Viability Score: Growth [6, 8]: 0 number of lines
- Viability Score: Necrosis [6, 8]: 6 number of lines
- Callus phenotype on protoxin (in words) ([6]; medium containing glyceryl glyphosate, pMON9443 calli): lethality
